{
  "source": "paper PMC4046051",
  "about": "“Two M-T hook residues greatly improve the antiviral activity and resistance profile of the HIV-1 fusion inhibitor SC29EK” (Retrovirology, 2014)",
  "key": {"[1]": {"target": "T1, NHR peptide N36 (HIV-1 gp41) (Human immunodeficiency virus type 1 group M subtype B, UniProt P04578)", "T1 construct": "made in house; host or cells: chemical synthesis (solid-phase FMOC), no expression host", "assay": "CD thermal denaturation of 6-HB formed by CHR peptide and N36", "format": "binding", "conditions": "CHR peptide + N36, each 10 μM in PBS pH 7.2; CD at 222 nm, 20-98°C", "procedure": "(§1) CD spectroscopy was performed according to our protocols described previously. […] The final concentration of each peptide was 10 μM in PBS buffer (pH 7.2). The CD spectra were acquired on a Jasco spectropolarimeter (model J-815) using a 1 nm bandwidth with a 1 nm step resolution from 195 to 260 nm at room temperature. The spectra were corrected by subtraction of a blank corresponding to the solvent. Data were averaged over three accumulations. The α-helical content was calculated from the CD signal by dividing the mean residue ellipticity [θ] at 222 nm by the value expected for 100% helix formation (-33,000 degrees.cm^2.dmol^-1). The thermal denaturation experiment was performed by monitoring the change in ellipticity [θ] at 222 nm at the increasing temperature (20–98°C) using temperature controller. The temperature was increased at a rate of 1.2°C per min; data were acquired at a 1 nm bandwidth at 222 nm at a frequency of 0.25 Hz. The melting curve was smoothened, and the midpoint of the thermal unfolding transition (Tm) values were taken as the maximum of the derivative d [θ]222/dT. The Tm value was detected at a peptide concentration of 10 μM in PBS buffer."}, "[2]": {"tested_on": "N36 mutant V38A", "assay": "CD thermal denaturation of 6-HB formed with N36 mutant V38A", "format": "binding, HIV-1", "conditions": "CHR peptide + N36 V38A mutant, each 10 μM in PBS", "procedure": "as §1"}, "[3]": {"target": "T2, N36 mutant I37T/N43K (Human immunodeficiency virus type 1 group M subtype B, UniProt P04578, I548T/N554K)", "T2 construct": "A panel of N36-based peptides carrying a single (I37T, V38A, Q40H, N43K) or double (I37T/N43K and V38A/N42T) NHR mutations; made in house; host or cells: chemical synthesis (solid-phase FMOC), no expression host", "assay": "CD thermal denaturation of 6-HB formed with N36 mutant I37T/N43K", "format": "binding, HIV-1", "conditions": "CHR peptide + N36 I37T/N43K mutant, each 10 μM in PBS", "procedure": "as §1"}, "[4]": {"target": "T1, NHR peptide N36 (HIV-1 gp41)", "assay": "Isothermal titration calorimetry (ITC) with N36", "format": "binding", "conditions": "1 mM N36 injected into 100 μM peptide, 25°C, read-out: binding constant (K) (converted)", "procedure": "ITC assay was performed using an ITC200 Microcalorimeter instrument (MicroCal, USA) as described previously. In brief, 1 mM N36 dissolved in ddH20 was injected into the chamber containing 100 μM SC29EK or MT-SC29EK. The experiments were carried out at 25°C. The time between injections was 240 s and the stirring speed was 500 rpm. The heats of dilution were determined in control experiments by injecting N36 into ddH20 and subtracted from the heats produced in the corresponding peptide-peptide binding experiments. Data acquisition and analysis were performed using MicroCal Origin software (version 7.0)."}, "[5]": {"target": "T3, six-helical bundle (6-HB) of N36 and biotinylated-C34 (Human immunodeficiency virus type 1 group M subtype B, UniProt P04578)", "T3 construct": "made in house; host or cells: chemical synthesis (solid-phase FMOC), no expression host", "assay": "Inhibition of 6-HB formation, NC-1 capture ELISA", "format": "biochemical, HIV-1", "conditions": "biotinylated-C34 0.1 μM, N36 0.1 μM, 30 min room temperature, 3 independent experiments", "procedure": "The 6-HB core-specific monoclonal antibody NC-1 was obtained from Dr. Shibo Jiang in the New York Blood Center (New York, NY) through the ARRRP, Division of AIDS, NIAID, National Institute of Health. The inhibitory activity of SC29EK or MT-SC29EK on the 6-HB formation was measured by a modified ELISA as previously described. Briefly, a 96-well polystyrene plate was coated with 2 μg/ml NC-1 in 0.1 M Tris buffer (pH 8.8). A tested peptide at graded concentrations was mixed with the biotinylated-C34 (0.1 μM) and incubated with N36 (0.1 μM) at room temperature for 30 min. The mixture was then added to the NC-1-coated plate, followed by incubation for 30 min and washing with a washing buffer (PBS containing 0.1% Tween 20) three times. Then horseradish peroxidase (HRP)-labeled streptavidin (Invitrogen) and the substrate 3,3,5,5- tetramethylbenzidine (Sigma) were sequentially added. Absorbance at 450 nm (A450) was measured using an ELISA reader."}, "[6]": {"tested_on": "HIV-1NL4-3 pseudovirus", "format": "cell-based", "conditions": "100 TCID50, TZM-bl cells, 48 h, luciferase, mean ± SD of three independent experiments, SD, read-out: IC50 Entry", "procedure": "(§2) The inhibition of peptides on the HIV-1 entry was determined by single-cycle infection assay as described previously. Briefly, HIV-1 pseudovirus was generated by cotransfecting 293 T cells with an Env-expressing plasmid and a backbone plasmid pSG3^Δenv that encodes Env-defective, luciferase-expressing HIV-1 genome. The supernatants were harvested and filtered 48 h after transfection and 50% tissue culture infectious dose (TCID50) was determined in TZM-bl cells. The peptides were prepared with 3-fold dilutions and mixed with 100 TCID50 viruses and then incubated 1 h at room temperature. The mixture was added to TZM-bl cells (10^4/well) and incubated 48 h at 37°C. The luciferase activity was measured using luciferase assay reagents and a Luminescence Counter (Promega)."}, "[7]": {"tested_on": "wild-type HIV-1NL4-3", "format": "cell-based", "conditions": "wild-type HIV-1NL4-3, 100 TCID50, TZM-bl cells, two days, luciferase; mean ± SD of three independent experiments; SD; read-out: IC50 Replication", "procedure": "The inhibition of peptides on HIV-1 replication was determined by a molecular cloned wild-type HIV-1NL4–3. In brief, the virus stock was harvested and quantified 48 h post-transfection. 100 TCID50 viruses were used to infect TZM-bl cells in the presence or absence of serially diluted peptides. Two days post-infection, the cells were harvested and lysed in reporter lysis buffer and the luciferase activity was measured as described above."}, "[8]": {"tested_on": "HIV-1 NL4-3 WT", "assay": "Inhibition of T20-resistant HIV-1 variants panel: WT", "format": "cell-based", "procedure": "as §2"}, "[9]": {"tested_on": "HIV-1 NL4-3 I37T", "assay": "Inhibition of T20-resistant HIV-1 variants: I37T", "format": "cell-based", "procedure": "as §2"}, "[10]": {"tested_on": "HIV-1 NL4-3 V38A", "assay": "Inhibition of T20-resistant HIV-1 variants: V38A", "format": "cell-based", "procedure": "as §2"}, "[11]": {"tested_on": "HIV-1 NL4-3 V38M", "assay": "Inhibition of T20-resistant HIV-1 variants: V38M", "format": "cell-based", "procedure": "as §2"}, "[12]": {"tested_on": "HIV-1 NL4-3 Q40H", "assay": "Inhibition of T20-resistant HIV-1 variants: Q40H", "format": "cell-based", "procedure": "as §2"}, "[13]": {"tested_on": "HIV-1 NL4-3 N43K", "assay": "Inhibition of T20-resistant HIV-1 variants: N43K", "format": "cell-based", "procedure": "as §2"}, "[14]": {"tested_on": "HIV-1 NL4-3 D36S/V38M", "assay": "Inhibition of T20-resistant HIV-1 variants: D36S/V38M", "format": "cell-based", "procedure": "as §2"}, "[15]": {"tested_on": "HIV-1 NL4-3 I37T/N43K", "assay": "Inhibition of T20-resistant HIV-1 variants: I37T/N43K", "format": "cell-based", "procedure": "as §2"}, "[16]": {"tested_on": "HIV-1 NL4-3 V38A/N42T", "assay": "Inhibition of T20-resistant HIV-1 variants: V38A/N42T", "format": "cell-based", "procedure": "as §2"}, "[17]": {"tested_on": "molecular clone of HIV-1NL4-3", "assay": "In vitro selection of HIV-1 resistance in MT-4 cells", "format": "cell-based", "conditions": "1.5-2 fold escalating concentrations, after 35 generations of passage over 7 months", "procedure": "The in vitro selection of HIV-1 resistance to peptide inhibitors was performed as described previously. Briefly, MT-4 cells were seeded at 1 × 10^4 in RPMI 1640 medium containing 10% fetal bovine serum on 12-well plates. The molecular clone of HIV-1NL4–3 was used to infect the cells in the presence or absence of diluted peptide inhibitors (SC29EK, MT-SC29EK, SC22EK and MT-SC22EK). The cells were incubated at 37°C with 5% CO2 until an extensive cytopathic effect was observed. The culture supernatants were harvested and used for next passage on fresh MT-4 cells with 1.5-2 fold increasing concentrations of peptide. Cells and supernatant were harvested at regular time points and stored at -80°C."}, "[18]": {"conditions": "mean ± SD of three independent experiments, SD"}, "[19]": {"conditions": "mean ± SD of three independent experiments"}},
  "note": "Peptide text beside a SMILES is read from it.",
  "data": [
    {"compound": "CC[C@H](C)[C@H](NC(=O)[C@H](CC(C)C)NC(=O)[C@H](CCC(=O)O)NC(=O)[C@H](CCC(=O)O)NC(=O)[C@@H](NC(=O)[C@H](CCCCN)NC(=O)[C@H](CCCCN)NC(=O)[C@@H](NC(=O)[C@H](Cc1ccc(O)cc1)NC(=O)[C@H](CCC(=O)O)NC(=O)[C@H](CCC(=O)O)NC(=O)[C@@H](NC(=O)[C@H](CCCCN)NC(=O)[C@H](CCCCN)NC(=O)[C@H](CC(=O)O)NC(=O)[C@H](Cc1c[nH]c2ccccc12)NC(=O)[C@H](CCC(=O)O)NC(=O)[C@H](CCC(=O)O)NC(=O)[C@H](Cc1c[nH]c2ccccc12)NC(C)=O)[C@@H](C)CC)[C@@H](C)O)[C@@H](C)CC)C(=O)N[C@@H](CCCCN)C(=O)N[C@@H](CCCCN)C(=O)N[C@@H](CO)C(=O)N[C@@H](CCC(=O)O)C(=O)N[C@@H](CCC(=O)O)C(=O)N[C@@H](CCC(N)=O)C(=O)N[C@@H](CCC(N)=O)C(=O)N[C@@H](CCCCN)C(=O)N[C@@H](CCCCN)C(=O)N[C@@H](CC(N)=O)C(N)=O", "note": "[SC29EK] (Ac-WEEWDKKIEEYTKKIEELIKKSEEQQKKN-NH2)", "values": [
      {"measurement": "Tm (midpoint of the thermal unfolding transition) of 6-HB", "setting": "[1]", "value": 69.1, "unit": "°C"},
      {"measurement": "Tm of 6-HB", "setting": "[2]", "value": 62.1, "unit": "°C"},
      {"measurement": "Tm of 6-HB", "setting": "[3]", "value": 61.1, "unit": "°C"},
      {"measurement": "Kd", "setting": "[4]", "value": 71.9, "unit": "nM"},
      {"measurement": "IC50", "setting": "[5]", "value": 14000, "unit": "nM"},
      {"measurement": "IC50", "setting": "[6]", "value": "2.2 ± 0.3", "unit": "nM"},
      {"measurement": "IC50", "setting": "[7]", "value": "0.9 ± 0.2", "unit": "nM"},
      {"measurement": "n-fold relative to the IC50 of the wild-type (WT) virus", "setting": "[8]", "value": 1},
      {"measurement": "IC50", "setting": "[8]; [18]", "value": "1.8 ± 0.2", "unit": "nM"},
      {"measurement": "n-fold relative to the IC50 of the wild-type (WT) virus", "setting": "[9]", "value": 8.3},
      {"measurement": "IC50", "setting": "[9]; [18]", "value": "15 ± 0.3", "unit": "nM"},
      {"measurement": "n-fold relative to the IC50 of the wild-type (WT) virus", "setting": "[10]", "value": 9},
      {"measurement": "IC50", "setting": "[10]; [18]", "value": "16.2 ± 1.9", "unit": "nM"},
      {"measurement": "n-fold relative to the IC50 of the wild-type (WT) virus", "setting": "[11]", "value": 8.4},
      {"measurement": "IC50", "setting": "[11]; [18]", "value": "15.1 ± 1.8", "unit": "nM"},
      {"measurement": "n-fold relative to the IC50 of the wild-type (WT) virus", "setting": "[12]", "value": 46.6},
      {"measurement": "IC50", "setting": "[12]; [18]", "value": "83.8 ± 10.8", "unit": "nM"},
      {"measurement": "n-fold relative to the IC50 of the wild-type (WT) virus", "setting": "[13]", "value": ">138.9"},
      {"measurement": "IC50", "setting": "[13]; [19]", "value": "> 250", "unit": "nM"},
      {"measurement": "n-fold relative to the IC50 of the wild-type (WT) virus", "setting": "[14]", "value": 6.5},
      {"measurement": "IC50", "setting": "[14]; [18]", "value": "11.7 ± 0.7", "unit": "nM"},
      {"measurement": "n-fold relative to the IC50 of the wild-type (WT) virus", "setting": "[15]", "value": ">138.9"},
      {"measurement": "IC50", "setting": "[15]; [19]", "value": "> 250", "unit": "nM"},
      {"measurement": "n-fold relative to the IC50 of the wild-type (WT) virus", "setting": "[16]", "value": 20.9},
      {"measurement": "IC50", "setting": "[16]; [18]", "value": "37.7 ± 6.4", "unit": "nM"},
      {"measurement": "peptide concentration reached during in vitro selection of resistant virus", "setting": "[17]", "value": "2,650 nM"}
    ]}
  ]
}
